Source: US7645740B2, “Peptide sequence found in Laminin 5 for treating skin impairments” (Laboratoires d'Anjou Centre National de la Recherche …, priority 2004, dated 2010)

What was measured:
[1] = system: NHK-old; test: Cell proliferation test (XTT), NHK-old; format: cell-based, human; settings: peptide 0.05% and 0.1%, 5th hour
Experimental: NHK-10 years and NHK-71 years were seeded in 96-well plates at a rate of 10,000 cells per well. After 24 hours, the culture medium was removed and replaced with serum-free medium containing the peptide quantities given in the graphs and reagent XTT. The plates were then placed in the incubator at 37° C. and absorbance readings were taken at 1 h, 2 h, 3 h, 4 h and 5 h. Peptide-free controls were carried out on the same plate.
(§1) The effect of the peptide on cell proliferation was analysed with the aid of a calorimetric test (Cell Proliferation Kit XTT, Roche Diagnostics, Meylan, France) on the cells use for the cell adhesion test, i.e. HT1080, A431, HBL100 cells and normal human keratinocytes from young and elderly individuals.
(§2) The chemical reaction used in the test is based on the production of NADPH by living cells, leading to the reduction of yellow tetrazolium XTT salts to orange formazan salts. Absorbance was measured at 490 nm using an ELISA plate reader. Cells were seeded in 96-well plates at a rate of 10,000 cells per well (6 wells/condition) in KBM-2 culture medium. After 24 hours in culture at 37° C. with 5% CO2, the culture medium was removed and replaced with serum-free medium containing the peptide quantities given in the graphs and the test reagent. The plates were then placed in the incubator at 37° C. and absorbance readings were taken at 1 h, 2 h, 3 h, 4 h and 5 h. […]

[2] = system: HBL100 cells (human mammary epithelium); test: Cell adhesion test to immobilized peptides, HBL100; format: cell-based
Experimental: Dose-dependent cell adhesion of cell line HBL100 to various peptides 1, 2 and 3. The peptides were immobilized in 96-well plates at the concentrations given on the abscissa. 8×10^4 cells were deposited in each well and plates were incubated at 37° C. for 1 hour. After washing, attached cells were fixed and cell adhesion was measured as described in the methodology section.
Peptides 1, 2 and 3 were used for the cell adhesion experiments. A range of 7 decreasing concentrations (100 micrograms/ml, 50 micrograms/ml, 25 micrograms/ml, 12.5 micrograms/ml, 6.25 micrograms/ml, 3.125 micrograms/ml and 1.562 micrograms/ml) was made up by successive dilution in PBS (Phosphate Buffer Saline, KH2PO4 1.54 mM; Na2HPO4 1.42 mM; NaCl-131 mM) using a starting solution at a concentration of 1 mg/ml. These solutions were immediately distributed onto a 96-well culture plate (Greinher, Dutscher, Brumath, France) at a rate of 100 μl per well. Plates were then placed at +4° C. for 16 to 18 hours. The solutions were then removed by turning the plates and each well was saturated with a 1% PBS-BSA solution (bovine serum albumin). Three additional wells without the substrate underwent the same treatment and were used as blanks.
Epithelial cells were detached from the culture dishes using a trypsin/EDAT solution (0.05-0.02%) then suspended in DMEM medium without additives for the cell lines and in KBM-2 without additive for human keratinocytes. The number of seeded cells per well is given in the graphs (50,000 to 100,000 cells per well).
After cell seeding, the multi-well plates were placed in an incubator at 37° C. under 5% CO2. After incubation for 30 to 60 minutes, cells were observed under a phase contrast microscope in order to verify that the test was conducted correctly. The adhesion medium was then removed and each well was washed in a sterile PBS solution to remove non-adhering cells. The remaining cells, attached to the substrate, were then fixed using a solution of 1% glutaraldehyde in PBS for 15 minutes. The glutaraldehyde solution as removed and the cells were stained with a crystal violet solution diluted to 1% in distilled water for 30 minutes.
After rinsing in water several times, cells were permeabilized by means of a 0.02% triton solution for 15 minutes in order to solubilize the crystal violet. Absorbances were read at 570 nm using an ELISA plate reader (MR500, Dynatech, Guernsey, Channel Islands). Each experimental point was carried out in triplicate. The blank value represented the mean absorbance of 3 control wells (BSA). This was subtracted from each of the optical density values for the experimental points. We then calculated the mean for the three absorbance values for each of the triplicate samples.
The results are presented in the form of a graph with the absorbance values on the ordinate and the various substrate concentrations on the abscissa. Attached cells were photographed by phase contrast microscopy.
The following cells from epithelial cell lines were used initially (commonly used in preliminary studies on cell adhesion): • line HT1080 cells (human fibrosarcoma), American Type Culture Collection CCL-121. • line HB100 cells (human mammary epithelium), American Type Culture Collection HTB-124. • line A431 cells (skin epitheliods), American Type Culture Collection CRL-1555.

[3] = system: HBL100 cells; test: Cell proliferation test (XTT), HBL100; format: cell-based, human; settings: HBL100, peptide 0.5% and 1%, serum-free medium, 5th hour
Experimental: HT1080 cells (A) and HBL100 cells (B) were seeded in 96-well plates at a rate of 10,000 cells per well. After 24 hours, the culture medium was removed and replaced with serum-free medium containing the peptide quantities given in the graphs and reagent XTT. The plates were then placed in the incubator at 37° C. and absorbance readings were taken at 1 h, 2 h, 3 h, 4 h and 5 h. Peptide-free controls were carried out on the same plate.
as §1, §2

TALRIRATYGEY (Human laminin 5) [Peptide 1]
mean increase in proliferation compared to the control [1]: ≤ 7%
cell adhesion to immobilized peptide ([2]; HBL100, 0 to 10 micrograms immobilized peptide, 8×10^4 cells per well, 1 hour 37° C., absorbance 570 nm): led to cell adhesion
immobilized peptide quantity at which adhesion occurred ([2]; HBL100, FIG. 2): 0.31 micrograms
immobilized peptide quantity at which maximum adhesion was achieved ([2]; HBL100, FIG. 2): 1.25 micrograms
mean increase in cell proliferation compared to the control [3]: 8%
